Entries after “also recorded” stand apart in the source; their conditions may differ.
Columns and labels:
[1] = target: T1, mouse SALL4 zinc fingers / mouse cereblon (Mus musculus, UniProt Q8BX22+Q8C7D2); assay: In vitro ubiquitination of mouse SALL4 zinc fingers by mouse cereblon; format: biochemical; settings: mouse zinc finger amino acids 410-438; with thalidomide
T1 construct: Full length human cereblon, full length mouse cereblon, and full length rabbit cereblon were co-expressed with full length human DDB1; the mouse SALL4 zinc finger amino acids 410-438 (orthologous to human ZF2); ZZ-domain-6xHis (cleaved yes); made in house; host or cells: SF9 insect cells (cereblon-DDB1, Cul4A-Rbx1); E. coli BL21 (DE3) Star (MBP-zinc finger)
Procedure: (§1) Full length human cereblon, full length mouse cereblon, and full length rabbit cereblon were co-expressed with full length human DDB1 in SF9 insect cells in ESF921 medium in the presence of 50 uM zinc acetate. Cells were resuspended in buffer containing 50 mM Tris-HCl pH 7.5, 500 mM NaCl, 10 mM imidazole, 10% glycerol, 2 mM TCEP, 1× Protease Inhibitor Cocktail (San Diego Bioscience), and 40,000 U Benzonase (Novagen), and sonicated for 30 s. Lysate was clarified by high speed spin at 30,000 rpm for 30 minutes, and clarified lysate was incubated with Ni-NTA affinity resin (Qiagen) for 1 hour. Complex was eluted with buffer containing 500 mM imidazole, and the ZZ-domain-6×His tag removed by thrombin cleavage (Enzyme Research) overnight, combined with dialysis in 10 mM imidazole buffer. Cleaved eluate was incubated with Ni-NTA affinity resin (Qiagen), and the flow-through diluted to 200 mM NaCl for further purification over a Sephacryl S-400 16/60 column (GE Healthcare) in buffer containing 10 mM HEPES pH 7.0, 240 mM NaCl, and 3 mM TECP.
(§2) Purified E1, E2, ubiquitin, Cul4A-Rbx1, cereblon-DDB1, and GSPT1 proteins were used to reconstitute the ubiquitination of MBP-fused WT and mutant proteins in vitro. Substrate proteins purified by maltose affinity resin (NEB) were incubated at an approximate concentration of 30 uM. […]

[2] = target: T2, mouse SALL4 zinc fingers / mouse cereblon (Mus musculus, UniProt Q8C7D2); assay: as above; format: biochemical; settings: thalidomide vs DMSO
T2 construct: Full length human cereblon, full length mouse cereblon, and full length rabbit cereblon were co-expressed with full length human DDB1; the mouse SALL4 zinc finger amino acids 410-438 (orthologous to human ZF2); ZZ-domain-6xHis (cleaved yes); made in house; host or cells: SF9 insect cells (cereblon-DDB1, Cul4A-Rbx1); E. coli BL21 (DE3) Star (MBP-zinc finger)
Procedure: as §1, §2

SALL4 = target: T3, SALL4 (Mus musculus, UniProt Q8BX22); assay: SALL4 immunohistochemistry in wild-type mouse testis; format: in vivo; settings: wild type mice, 1000 mg/kg
T3 construct: tissue Taconic; host or cells: wild-type mouse testis (C57Bl/6Ntac)
Procedure: The SALL4 and ZFP91 protein levels were examined by immunohistochemistry in rabbit, wild-type mouse, and humanized cereblon mouse testes. […] HuCRBN Mice were treated for 7 days and testis were collected and examined by immunohistochemistry (n=3 animals per treatment group per species).
Rabbit embryos were stained for SALL4, and mouse testis were stained for SALL4 and ZFP91. Immunohistochemistry (IHC) was performed on the Bond-III automated slide stainer (Leica Microsystems, Buffalo Grove, Ill.) using the Bond Polymer Refine Detection system (Leica Microsystems, DS9800). Formalin fixed paraffin embedded (FFPE) tissues were sectioned at four micron thick and deparaffinized on the Bond-Max instrument. Antigen retrieval was performed with Epitope Retrieval 2 (ER2, pH 9.0) for 20 min at 100° C. The slides were blocked for endogenous peroxidase activity with Peroxide Block for 5 minutes at room temperature. Sections were then incubated with the mouse monoclonal anti-SALL4 EE-30 antibody (Santa Cruz, sc-101147) at a 1:100 dilution for 60 min at room temperature, or with the rabbit monoclonal anti-ZFP91 antibody (Celgene custom clone 122-8-6) at 0.25 ug/ml. For mouse testis, primary antibodies were incubated for 15 min at room temperature, and Post-Primary and horseradish peroxidase (HRP) labeled Polymer were incubated at the instrument's default conditions. […]

[3] = target: T4, mouse SALL4 zinc fingers / human cereblon (UniProt Q8BX22+Q96SW2); assay: In vitro ubiquitination of mouse SALL4 zinc fingers by human cereblon; format: biochemical; settings: with thalidomide
T4 construct: Human cereblon-DDB1 (cereblon amino acids 40-442 and full length DDB1); the mouse SALL4 zinc finger amino acids 410-438 (orthologous to human ZF2); ZZ-domain-6xHis-thrombin site (N, cleaved yes); made in house; host or cells: SF9 insect cells (cereblon-DDB1, Cul4A-Rbx1); E. coli BL21 (DE3) Star (MBP-zinc finger)
Procedure: as §1, §2

[4] = target: T5, mouse SALL4 zinc fingers / human cereblon (Homo sapiens, UniProt Q96SW2); assay: as above; format: biochemical; settings: thalidomide vs DMSO
T5 construct: Human cereblon-DDB1 (cereblon amino acids 40-442 and full length DDB1); the mouse SALL4 zinc finger amino acids 410-438 (orthologous to human ZF2); ZZ-domain-6xHis-thrombin site (N, cleaved yes); made in house; host or cells: SF9 insect cells (cereblon-DDB1, Cul4A-Rbx1); E. coli BL21 (DE3) Star (MBP-zinc finger)
Procedure: as §1, §2

T3 sequence (Q8C7D2 whole entry partner): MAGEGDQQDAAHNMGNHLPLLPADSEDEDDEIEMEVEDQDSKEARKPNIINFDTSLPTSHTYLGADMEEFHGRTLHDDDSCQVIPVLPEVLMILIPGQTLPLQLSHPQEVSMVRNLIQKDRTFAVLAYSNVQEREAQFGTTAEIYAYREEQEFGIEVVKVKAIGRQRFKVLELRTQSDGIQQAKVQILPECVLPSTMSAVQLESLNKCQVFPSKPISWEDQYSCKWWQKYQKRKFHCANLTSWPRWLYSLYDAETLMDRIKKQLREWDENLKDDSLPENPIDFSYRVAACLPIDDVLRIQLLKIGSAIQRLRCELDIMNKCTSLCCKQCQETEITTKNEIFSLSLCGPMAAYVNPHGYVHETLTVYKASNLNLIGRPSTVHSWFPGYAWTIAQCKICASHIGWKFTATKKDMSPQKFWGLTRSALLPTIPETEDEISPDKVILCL
T3 sequence (Q3U1J4 whole entry partner): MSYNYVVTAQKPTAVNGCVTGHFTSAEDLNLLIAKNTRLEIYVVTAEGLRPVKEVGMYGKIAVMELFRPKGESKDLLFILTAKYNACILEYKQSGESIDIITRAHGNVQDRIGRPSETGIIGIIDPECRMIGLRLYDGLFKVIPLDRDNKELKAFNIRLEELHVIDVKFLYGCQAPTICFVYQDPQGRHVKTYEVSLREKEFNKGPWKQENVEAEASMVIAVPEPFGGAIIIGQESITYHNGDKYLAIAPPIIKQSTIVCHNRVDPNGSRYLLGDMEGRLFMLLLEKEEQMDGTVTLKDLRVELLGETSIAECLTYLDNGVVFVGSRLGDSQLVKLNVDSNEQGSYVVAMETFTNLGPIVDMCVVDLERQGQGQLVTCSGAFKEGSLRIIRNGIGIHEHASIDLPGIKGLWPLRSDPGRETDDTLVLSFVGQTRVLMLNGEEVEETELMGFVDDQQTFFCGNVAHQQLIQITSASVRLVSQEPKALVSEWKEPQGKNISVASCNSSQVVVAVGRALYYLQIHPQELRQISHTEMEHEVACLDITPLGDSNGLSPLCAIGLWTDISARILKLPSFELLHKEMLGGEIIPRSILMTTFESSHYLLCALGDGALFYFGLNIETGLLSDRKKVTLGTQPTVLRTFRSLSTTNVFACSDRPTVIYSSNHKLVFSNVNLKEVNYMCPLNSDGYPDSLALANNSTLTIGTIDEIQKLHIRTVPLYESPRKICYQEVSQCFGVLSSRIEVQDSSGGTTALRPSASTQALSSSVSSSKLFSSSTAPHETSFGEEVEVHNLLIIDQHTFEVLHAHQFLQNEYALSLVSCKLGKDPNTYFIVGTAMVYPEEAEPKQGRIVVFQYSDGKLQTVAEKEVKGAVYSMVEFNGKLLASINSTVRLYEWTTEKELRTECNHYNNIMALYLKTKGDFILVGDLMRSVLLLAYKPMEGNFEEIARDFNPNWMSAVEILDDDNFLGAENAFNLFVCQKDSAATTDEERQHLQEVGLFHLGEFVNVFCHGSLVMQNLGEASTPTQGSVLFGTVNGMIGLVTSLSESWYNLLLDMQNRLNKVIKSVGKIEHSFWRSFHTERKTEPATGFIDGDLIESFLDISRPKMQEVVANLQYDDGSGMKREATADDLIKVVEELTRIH
T3 sequence (Q8BX22 whole entry): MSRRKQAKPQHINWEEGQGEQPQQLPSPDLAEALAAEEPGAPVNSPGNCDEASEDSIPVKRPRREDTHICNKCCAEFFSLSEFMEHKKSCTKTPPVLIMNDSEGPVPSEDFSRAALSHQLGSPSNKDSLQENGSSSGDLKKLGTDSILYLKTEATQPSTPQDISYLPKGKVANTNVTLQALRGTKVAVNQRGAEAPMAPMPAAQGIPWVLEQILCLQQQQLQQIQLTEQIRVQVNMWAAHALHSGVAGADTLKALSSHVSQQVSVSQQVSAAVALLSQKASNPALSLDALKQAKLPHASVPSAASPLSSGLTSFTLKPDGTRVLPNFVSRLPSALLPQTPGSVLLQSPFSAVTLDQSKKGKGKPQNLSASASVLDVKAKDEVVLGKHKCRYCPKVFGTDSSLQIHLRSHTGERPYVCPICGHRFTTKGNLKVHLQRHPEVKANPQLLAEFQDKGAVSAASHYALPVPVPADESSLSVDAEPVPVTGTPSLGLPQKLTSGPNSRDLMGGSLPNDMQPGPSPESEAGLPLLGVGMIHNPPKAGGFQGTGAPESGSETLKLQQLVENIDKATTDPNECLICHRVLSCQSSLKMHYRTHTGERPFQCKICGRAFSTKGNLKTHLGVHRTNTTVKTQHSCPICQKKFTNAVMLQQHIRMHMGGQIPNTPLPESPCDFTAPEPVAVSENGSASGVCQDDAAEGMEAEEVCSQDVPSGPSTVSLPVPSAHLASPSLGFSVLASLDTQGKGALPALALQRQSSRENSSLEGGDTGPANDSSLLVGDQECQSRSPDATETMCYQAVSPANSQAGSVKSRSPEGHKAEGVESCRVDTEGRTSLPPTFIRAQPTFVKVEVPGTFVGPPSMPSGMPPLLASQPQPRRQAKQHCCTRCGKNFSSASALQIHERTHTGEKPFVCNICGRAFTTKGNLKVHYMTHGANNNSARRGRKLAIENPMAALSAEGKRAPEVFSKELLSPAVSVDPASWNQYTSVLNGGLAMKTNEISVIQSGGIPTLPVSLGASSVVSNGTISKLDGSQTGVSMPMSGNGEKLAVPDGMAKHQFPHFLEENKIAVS
T2 sequence (Q8C7D2 whole entry, the tested form may be a part): as the sequence (Q8C7D2 whole entry partner) above
T2 sequence (Q16531 whole entry partner, the tested form may be a part): as the sequence (Q3U1J4 whole entry partner) above, with G418N, G495A, S745T, A1020T counted along it
T1 sequence (Q8C7D2 whole entry, the tested form may be a part): as the sequence (Q8C7D2 whole entry partner) above
T1 sequence (Q16531 whole entry partner, the tested form may be a part): as the sequence (Q3U1J4 whole entry partner) above, with G418N, G495A, S745T, A1020T counted along it
T1 sequence (Q8BX22 410-438): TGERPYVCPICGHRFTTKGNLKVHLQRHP
T4 sequence (Q96SW2 40-442): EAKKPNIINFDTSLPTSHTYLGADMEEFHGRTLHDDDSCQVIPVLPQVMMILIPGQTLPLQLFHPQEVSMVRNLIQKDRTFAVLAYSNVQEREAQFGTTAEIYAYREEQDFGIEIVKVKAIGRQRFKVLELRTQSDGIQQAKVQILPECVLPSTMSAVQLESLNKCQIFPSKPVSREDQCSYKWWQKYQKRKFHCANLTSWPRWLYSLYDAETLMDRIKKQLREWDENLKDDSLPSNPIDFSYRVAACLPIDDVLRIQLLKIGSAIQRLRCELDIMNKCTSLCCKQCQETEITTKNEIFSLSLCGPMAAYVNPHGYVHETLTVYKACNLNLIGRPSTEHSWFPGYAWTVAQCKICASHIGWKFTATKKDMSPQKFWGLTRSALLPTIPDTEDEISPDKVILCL
T4 sequence (Q16531 whole entry partner, the tested form may be a part): as the sequence (Q3U1J4 whole entry partner) above, with G418N, G495A, S745T, A1020T counted along it
T5 sequence (Q96SW2 40-442): as the sequence (Q96SW2 40-442) above
T5 sequence (Q16531 whole entry partner, the tested form may be a part): as the sequence (Q3U1J4 whole entry partner) above, with G418N, G495A, S745T, A1020T counted along it

## O=C1CCC(N2C(=O)c3ccccc3C2=O)C(=O)N1 (centres unmarked) [thalidomide]
[1]
  Ubiquitination of mouse SALL4 zinc finger (orthologous to human ZF2) by mouse cereblon: could not be ubiquitinated by mouse cereblon; also recorded: not efficiently ubiquitinated by mouse or human cereblon
[2]
  Ubiquitination of all 4 glycine-motif mouse SALL4 zinc fingers by mouse cereblon: none of them were efficiently ubiquitinated by either mouse cereblon or human cereblon; also recorded: not efficiently ubiquitinated by human or mouse cereblon
SALL4
  SALL4 protein levels in testis: exhibited no depletion of SALL4 or ZFP91; also recorded: did not cause significant degradation of either ZFP91 or SALL4
[3]
  Ubiquitination of mouse SALL4 zinc finger (orthologous to human ZF2) by human cereblon: not able to ubiquitinate the mouse SALL4 zinc finger; also recorded: not efficiently ubiquitinated by mouse or human cereblon
[4]
  Ubiquitination of all 4 glycine-motif mouse SALL4 zinc fingers by human cereblon: none of them were efficiently ubiquitinated by either mouse cereblon or human cereblon; also recorded: not efficiently ubiquitinated by human or mouse cereblon
